Read-outs that look alike come from different tables or passages of the source.
Columns and labels:
[1] = biological target: T1, human recombinant HDAC1 (Homo sapiens, UniProt Q13547); assay: HDAC1 enzyme activity inhibition (HDAC Fluorimetric Drug Discovery Kit); assay type: biochemical; conditions: read-out: HDAC1
T1 construct: purchased Enzo Life Science, Inc. BML-SE456
In short: (§1)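 Fluorimetric deacetylase read-out: after 30 min with Developer II following a 60 min, 30° C reaction of recombinant enzyme ([…]) with 10 μM substrate, across five-fold serial compound dilutions.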

[2] = biological target: T2, human recombinant HDAC6 (Homo sapiens, UniProt Q9UBN7); assay: HDAC6 enzyme activity inhibition (HDAC Fluorimetric Drug Discovery Kit); assay type: biochemical
T2 construct: purchased Calbiochem Inc. 382180
T2 sequence (Q9UBN7 1-1215): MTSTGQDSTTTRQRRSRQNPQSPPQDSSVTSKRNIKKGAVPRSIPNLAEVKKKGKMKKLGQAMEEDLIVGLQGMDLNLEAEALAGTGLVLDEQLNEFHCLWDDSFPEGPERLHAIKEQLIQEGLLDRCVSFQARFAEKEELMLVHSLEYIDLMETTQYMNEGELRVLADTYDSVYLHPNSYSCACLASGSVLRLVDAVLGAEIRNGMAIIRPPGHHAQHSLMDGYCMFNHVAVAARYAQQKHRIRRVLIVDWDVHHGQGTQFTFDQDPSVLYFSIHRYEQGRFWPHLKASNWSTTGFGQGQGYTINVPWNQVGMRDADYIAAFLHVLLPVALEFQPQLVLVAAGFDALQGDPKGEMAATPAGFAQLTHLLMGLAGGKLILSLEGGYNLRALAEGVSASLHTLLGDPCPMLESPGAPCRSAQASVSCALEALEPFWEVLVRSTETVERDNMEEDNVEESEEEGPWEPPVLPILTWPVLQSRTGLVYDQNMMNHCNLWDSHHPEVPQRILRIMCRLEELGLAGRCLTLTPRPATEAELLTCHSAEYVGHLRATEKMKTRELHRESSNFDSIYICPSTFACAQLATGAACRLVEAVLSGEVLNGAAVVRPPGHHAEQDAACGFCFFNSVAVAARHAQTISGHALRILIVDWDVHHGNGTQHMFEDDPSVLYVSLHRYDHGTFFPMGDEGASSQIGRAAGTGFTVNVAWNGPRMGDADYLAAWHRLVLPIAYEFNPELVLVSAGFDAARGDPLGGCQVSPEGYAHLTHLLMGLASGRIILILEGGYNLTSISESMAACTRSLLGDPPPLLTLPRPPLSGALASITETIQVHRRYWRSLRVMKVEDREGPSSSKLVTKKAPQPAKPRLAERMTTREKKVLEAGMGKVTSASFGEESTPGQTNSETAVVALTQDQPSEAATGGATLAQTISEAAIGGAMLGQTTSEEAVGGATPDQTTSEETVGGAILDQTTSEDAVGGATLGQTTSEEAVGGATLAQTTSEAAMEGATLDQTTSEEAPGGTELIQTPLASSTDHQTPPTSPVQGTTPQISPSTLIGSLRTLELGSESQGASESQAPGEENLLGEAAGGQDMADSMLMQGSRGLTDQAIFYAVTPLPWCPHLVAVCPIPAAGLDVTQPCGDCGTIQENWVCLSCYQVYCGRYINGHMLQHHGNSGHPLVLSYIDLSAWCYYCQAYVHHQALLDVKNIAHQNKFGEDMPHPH
In short: as §1

[3] = tested on: hippocampal neurons from a Sprague-Dawley (SD) rat fetus; assay: Effect of HDAC6-specific inhibitor on axonal transport of mitochondria in amyloid-beta treated neurons; assay type: cell-based; conditions: transport velocity of mitochondria in neuronal axon after normalization; vehicle = 100%, amyloid beta treatment group = 0%; compound treatment for three hours
Method: On the 17th to 18th days (E17-18) of insemination, the hippocampal neurons from a Sprague-Dawley (SD) rat fetus were cultured in a culture container for imaging, which had been coated with extracellular matrix, and were treated with amyloid-beta protein fragments at a concentration of […]. In 24 hours later, the neurons were treated with the compound on the 8th day of in vitro culture. In three hours later, the resulting neurons were treated with MitoTracker Red CMXRos (Life Technologies, NY, USA) for last five minutes to stain mitochondria. An image on the axonal transport of stained neuron mitochondria was taken with a confocal microscope (Leica SP8; Leica microsystems, UK) at an interval of one second for one minute to measure a transport velocity of each mitochondria per second with an IMARIS analysis program (BITPLANE, Zurich, Switzerland).
In result, after setting a section, in which the group treated with amyloid-beta had shown a significant decrease in the transport velocity of mitochondria compared to a vehicle, it was confirmed for 1,3,4-oxadiazole triazol derivative compounds of the present invention, stereoisomers thereof or pharmaceutically acceptable salts thereof that the vehicles is represented as 100%, the amyloid beta treatment group is represented as 0%, a velocity distribution of the compound after normalization is represented as *, 0%˜50%; **, 50%˜100%; ***, >100%.

[4] = human recombinant HDAC1, Fluor de Lys substrate, 30° C. 60 minutes
[5] = human recombinant HDAC6, same protocol as HDAC1
[6] = human recombinant HDAC1, IC50 calculated with GraphPad Prism
[7] = human recombinant HDAC6, IC50 calculated with GraphPad Prism

T1 sequence (Q13547 whole entry): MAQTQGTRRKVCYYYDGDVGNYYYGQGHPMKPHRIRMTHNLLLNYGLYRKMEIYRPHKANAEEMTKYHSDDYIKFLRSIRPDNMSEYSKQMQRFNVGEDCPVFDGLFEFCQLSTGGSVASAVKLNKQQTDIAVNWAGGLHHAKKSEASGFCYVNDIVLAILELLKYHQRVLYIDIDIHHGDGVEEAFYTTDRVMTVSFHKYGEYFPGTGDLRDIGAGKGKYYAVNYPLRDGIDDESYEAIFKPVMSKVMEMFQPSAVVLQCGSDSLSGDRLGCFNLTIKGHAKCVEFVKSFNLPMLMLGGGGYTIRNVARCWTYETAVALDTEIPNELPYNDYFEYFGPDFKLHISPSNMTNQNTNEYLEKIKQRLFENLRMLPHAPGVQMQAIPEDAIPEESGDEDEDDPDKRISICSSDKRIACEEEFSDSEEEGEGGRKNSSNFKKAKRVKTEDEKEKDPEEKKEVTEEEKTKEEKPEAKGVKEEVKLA

SMILES	IC50 [1, 4] [nM]	HDAC6 selectivity (fold) ([2]; HDAC6 over HDAC1)	IC50 [2, 5] [nM]	IC50 [1, 6] [nM]	HDAC6 selectivity (fold) ([2]; HDAC1 IC50 / HDAC6 IC50)	IC50 [2, 7] [nM]	Velocity distribution (%) [3]
Fc1cc(-c2nnc(C(F)F)o2)cnc1Cn1cc(-c2cccc3[nH]ncc23)nn1 [Compound 19058, 2-(6-((4-(1H-indazol-4-yl)-1H-1,2,3-triazol-1-yl)methyl)-5-fluoropyridin-3-yl)-5-(difluoromethyl)-1,3,4-oxadiazole]	> 50000	2304	21.7				*** (***, >100%)
Fc1cc(-c2nnc(C(F)F)o2)cnc1Cn1cc(-c2ccc(CN3CCC3)s2)nn1 [Compound 18309, 2-(6-((4-(5-(azetidin-1-ylmethyl)thiophen-2-yl)-1H-1,2,3-triazol-1-yl)methyl)-5-fluoropyridin-3-yl)-5-(difluoromethyl)-1,3,4-oxadiazole]	> 50000	1160	43.1				** (**, 50%˜100%)
Fc1cc(-c2nnc(C(F)F)o2)ccc1Cn1cc(-c2ccc3c(CN4CCOCC4)c[nH]c3c2)nn1 [Compound 4112]				> 50000	3125	16	*** (***, >100%)
FC(F)c1nnc(-c2ccc(Cn3cc(-c4cccc(-n5ccnc5)c4)nn3)nc2)o1 [Compound 4075, 2-(6-((4-(3-(1H-imidazol-1-yl)phenyl)-1H-1,2,3-triazol-1-yl)methyl)pyridin-3-yl)-5-(difluoromethyl)-1,3,4-oxadiazole]				> 50000	3048	16.4	*** (***, >100%)
CC1CCN(Cc2c[nH]c3cc(-c4cn(Cc5ccc(-c6nnc(C(F)F)o6)cc5F)nn4)ccc23)CC1 [Compound 4110, 2-(difluoromethyl)-5-(3-fluoro-4-((4-(3-((4-methylpiperidin-1-yl)methyl)-1H-indol-6-yl)-1H-1,2,3-triazol-1-yl)methyl)phenyl)-1,3,4-oxadiazole]				> 50000	3030	16.5	** (**, 50%˜100%)
Fc1cc(-c2nnc(C(F)F)o2)ccc1Cn1cc(-c2ccc(CN3CC[C@H](F)C3)cn2)nn1 [Compound 18185, (S)-2-(difluoromethyl)-5-(3-fluoro-4-((4-(5-((3-fluoropyrrolidin-1-yl)methyl)pyridin-2-yl)-1H-1,2,3-triazol-1-yl)methyl)phenyl)-1,3,4-oxadiazole]	> 50000	806	62				*** (***, >100%)
Fc1cc(-c2nnc(C(F)F)o2)ccc1Cn1cc(-c2ccc3c(c2)CN(C2CCC2)CC3)nn1 [Compound 4366, 2-(4-((4-(2-cyclobutyl-1,2,3,4-tetrahydroisoquinolin-7-yl)-1H-1,2,3-triazol-1-yl)methyl)-3-fluorophenyl)-5-(difluoromethyl)-1,3,4-oxadiazole]				> 50000	1358	36.8	*** (***, >100%)
FC(F)c1nnc(-c2ccc(Cn3cc(-c4cccc(NC5CCOCC5)c4)nn3)nc2)o1 [Compound 3827, N-(3-(1-((5-(5-(difluoromethyl)-1,3,4-oxadiazol-2-yl)pyridin-2-yl)methyl)-1H-1,2,3-triazol-4-yl)phenyl)tetrahydro-2H-pyran-4-amine]				> 50000	2487	20.1	*** (***, >100%)
Fc1cc(-c2nnc(C(F)F)o2)ccc1Cn1cc(-c2ccc3cn[nH]c3c2)nn1 [Compound 4342, 2-(4-((4-(1H-indazol-6-yl)-1H-1,2,3-triazol-1-yl)methyl)-3-fluorophenyl)-5-(difluoromethyl)-1,3,4-oxadiazole]				> 50000	1453	34.4	* (*, 0%˜50%)
FC(F)c1nnc(-c2ccc(Cn3cc(-c4ccccc4)nn3)nc2)o1 [Compound 3736, 2-(difluoromethyl)-5-(6-((4-phenyl-1H-1,2,3-triazol-1-yl)methyl)pyridin-3-yl)-1,3,4-oxadiazole]				> 50000	2252	22.2	*** (***, >100%)

More lines, main results first:

IC50 [1, 4] [nM]	HDAC6 selectivity (fold) ([2]; HDAC6 over HDAC1)	IC50 [2, 5] [nM]	IC50 [1, 6] [nM]	HDAC6 selectivity (fold) ([2]; HDAC1 IC50 / HDAC6 IC50)	IC50 [2, 7] [nM]	SMILES	Velocity distribution (%) [3]
			> 50000	3649	13.7	Fc1cc(-c2nnc(C(F)F)o2)ccc1Cn1cc(-c2ccc3c(CN4CCCC4)c[nH]c3c2)nn1 [Compound 4109, 2-(difluoromethyl)-5-(3-fluoro-4-((4-(3-(pyrrolidin-1-ylmethyl)-1H-indol-6-yl)-1H-1,2,3-triazol-1-yl)methyl)phenyl)-1,3,4-oxadiazole]	*** (***, >100%)
			> 50000	5494	9.1	CC(C)(F)C(=O)Nc1cccc(-c2cn(Cc3ccc(-c4nnc(C(F)F)o4)cn3)nn2)c1 [Compound 3987, N-(3-(1-((5-(5-(difluoromethyl)-1,3,4-oxadiazol-2-yl)pyridin-2-yl)methyl)-1H-1,2,3-triazol-4-yl)phenyl)-2-fluoro-2-methylpropanamide]	* (*, 0%˜50%)
			> 50000	4854	10.3	FC(F)c1nnc(-c2ccc(Cn3cc(-c4ccc5[nH]ccc5c4)nn3)nc2)o1 [Compound 4072, 2-(6-((4-(1H-indol-5-yl)-1H-1,2,3-triazol-1-yl)methyl)pyridin-3-yl)-5-(difluoromethyl)-1,3,4-oxadiazole]	** (**, 50%˜100%)
			> 50000	1424	35.1	Cc1ccc(-c2cn(Cc3ccc(-c4nnc(C(F)F)o4)cn3)nn2)cn1 [Compound 3925, 2-(difluoromethyl)-5-(6-((4-(6-methylpyridin-3-yl)-1H-1,2,3-triazol-1-yl)methyl)pyridin-3-yl)-1,3,4-oxadiazole]	*** (***, >100%)
			> 50000	739	67.6	FC(F)c1nnc(-c2ccc(Cn3cc(-c4ccc5cc[nH]c5c4)nn3)cc2)o1 [Compound 4076, 2-(4-((4-(1H-indol-6-yl)-1H-1,2,3-triazol-1-yl)methyl)phenyl)-5-(difluoromethyl)-1,3,4-oxadiazole]	*** (***, >100%)
			> 50000	7142	7	FC(F)c1nnc(-c2ccc(Cn3cc(-c4ccc5cc[nH]c5c4)nn3)nc2)o1 [Compound 3838, 2-(6-((4-(1H-indol-6-yl)-1H-1,2,3-triazol-1-yl)methyl)pyridin-3-yl)-5-(difluoromethyl)-1,3,4-oxadiazole]	* (*, 0%˜50%)
